The results in this text go back to ChEMBL document CHEMBL1201862, “PubChem BioAssay data set” (2004).

A short description of test [1]: off-target signal loss in HeLa-CEM21 co-culture – HeLa F-luc CTL cells, cherry-picked, counter-screen for HIV-1 Env fusion inhibitor project, dose response (AID 652040).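 Note: potency for signal decrease marking cytotoxic or nonspecific inhibition.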 In kind it is functional, cell-based.
Test [2] can be described thus: blockers of HIV-1 envelope-mediated cell-cell fusion – cherry-pick, dose response (AID 652057). In kind it is functional, cell-based.
A short description of test [3]: HIV-1 AD8 envelope cell-cell fusion blockers – cherry-pick, dose response (AID 652062).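 Note: luciferase signal from cell-cell fusion driven by HIV-1 clade B AD8 Env; potency is for inhibitors of fusion seen as a drop in luminescence.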 In kind it is functional, cell-based.
Test [4] can be described thus: blockers of HIV-1 ZM109 envelope-driven cell-cell fusion – HeLa effector, CEM target cells, luciferase, cherry-pick, dose response (AID 652058).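 Note: luciferase signal from HIV-1 Env mediated cell-cell fusion of effector and target cells.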 In kind it is functional, cell-based.
Test [5] has as its target T1, High affinity choline transporter 1 (Homo sapiens, UniProt Q9GZV3).
T1 sequence (Q9GZV3 whole entry): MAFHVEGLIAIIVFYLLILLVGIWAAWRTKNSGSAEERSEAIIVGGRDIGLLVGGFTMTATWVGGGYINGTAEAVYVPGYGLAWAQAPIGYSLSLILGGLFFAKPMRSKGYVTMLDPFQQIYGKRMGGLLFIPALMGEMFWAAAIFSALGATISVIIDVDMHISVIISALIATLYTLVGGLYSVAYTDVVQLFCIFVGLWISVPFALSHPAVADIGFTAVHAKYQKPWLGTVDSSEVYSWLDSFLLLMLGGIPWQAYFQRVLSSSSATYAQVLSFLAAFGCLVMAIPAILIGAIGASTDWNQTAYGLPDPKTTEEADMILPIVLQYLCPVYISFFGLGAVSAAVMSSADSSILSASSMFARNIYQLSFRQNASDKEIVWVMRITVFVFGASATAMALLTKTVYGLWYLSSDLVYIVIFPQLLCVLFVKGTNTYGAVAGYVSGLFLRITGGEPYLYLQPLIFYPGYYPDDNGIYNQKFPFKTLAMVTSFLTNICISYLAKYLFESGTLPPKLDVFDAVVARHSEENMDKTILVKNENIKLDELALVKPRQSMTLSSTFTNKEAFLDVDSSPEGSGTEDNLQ
Put plainly: human choline transporter blockers, potency – cell-based, 5-point CRC, membrane potential dye, dose response (AID 504840). In kind it is functional.

The nature of test [6]: A Cell Based Secondary Assay To Explore Cytotoxicity of Compounds that Sensitize Mycobacterium Tuberculosis to Beta-Lactam Antibiotics. In kind it is functional.
The next test concerns the target T2, Protein skinhead-1 (Caenorhabditis elegans, UniProt P34707).
T2 sequence (P34707 whole entry): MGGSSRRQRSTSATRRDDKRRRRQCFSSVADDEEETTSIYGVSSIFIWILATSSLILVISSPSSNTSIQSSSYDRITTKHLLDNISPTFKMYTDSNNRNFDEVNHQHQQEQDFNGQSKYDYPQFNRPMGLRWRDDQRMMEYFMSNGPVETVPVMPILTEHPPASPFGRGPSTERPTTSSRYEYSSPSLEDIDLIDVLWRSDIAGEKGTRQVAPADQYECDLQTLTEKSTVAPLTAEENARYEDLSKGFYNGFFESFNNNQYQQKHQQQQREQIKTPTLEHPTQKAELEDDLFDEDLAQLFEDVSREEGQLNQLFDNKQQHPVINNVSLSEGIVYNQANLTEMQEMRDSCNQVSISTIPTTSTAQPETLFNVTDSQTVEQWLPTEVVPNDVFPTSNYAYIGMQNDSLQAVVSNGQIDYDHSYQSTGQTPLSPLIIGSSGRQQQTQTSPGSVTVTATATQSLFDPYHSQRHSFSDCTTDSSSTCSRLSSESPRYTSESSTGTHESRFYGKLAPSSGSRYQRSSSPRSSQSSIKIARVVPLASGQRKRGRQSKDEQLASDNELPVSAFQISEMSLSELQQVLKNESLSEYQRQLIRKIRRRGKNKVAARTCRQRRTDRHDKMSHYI
In kind it is functional.

Test [7] is described as follows: non-specific 3'UTR reporter inhibition in Clone20-Shn3RL – cell-based, Renilla luciferase, cherry-picked, counter-screen for Shn3 inhibitor project, dose response (AID 624133). In kind it is functional.
Test [8] can be described thus: NIH3T3 cell viability loss – ATP luminescence, mouse fibroblasts, counter-screen, dose response (AID 2010).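 Note: cells exposed to compound for about 90 hours before reading.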 In kind it is functional, cell-based.
Test [9] in a line: loss of viability in HepG2 cells – cell-based, CellTiter-Glo, cherry-picked, cytotoxicity control for Shn3 inhibitor project, dose response (AID 624134). In kind it is functional.
A further test deals with INS1. Put plainly: INS-1E survival protection against cytokine death – cell-based, luminescence, retest, dose response (AID 449756).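 Note: cell death triggered by IL-1 beta plus TNF-alpha plus IFN-gamma mixture; protective hits raise ATP signal compared with cytokine alone wells.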 In kind it is functional. The following applies: Rattus norvegicus.
Test [10] is described as follows: reduction of Shn3 3'UTR-driven luciferase in osteoblasts – cell-based, Clone20 osteoblasts, firefly luciferase, cherry-picked, dose response (AID 624132).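 Note: firefly luciferase luminescence from reporter carrying the Shn3 3'UTR in osteoblasts.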 In kind it is functional.
A short description of test [11]: Trypanosoma cruzi growth suppression in host cells – NIH3T3 host cells, beta-gal luminescence, confirmation (AID 2044).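 Note: intracellular parasites grown in NIH/3T3 mouse fibroblasts as host cells; luminescent beta-galactosidase reporter signal from transgenic T. cruzi replicating inside host cells; inhibitors lower the luminescence signal.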 In kind it is functional, cell-based.
The subject of another test is Vero. Put plainly: cells. In kind it is functional. The following applies: Chlorocebus sabaeus.
A short description of test [12]: viability of uninfected HEp-2 cells – cell-based, HTS, cytotoxicity control for RSV inhibitor project, dose response (AID 2410). In kind it is functional. Particulars: human respiratory syncytial virus.
A short description of test [13]: Luminescence Cell-Based Dose Retest to Confirm Inhibitors of Cancer Stem Cells. [Related pubchem assays (depositor defined):AID2717, AID2721]. In kind it is functional. Particulars: Homo sapiens.
Test [14] can be described thus: viability loss in HEK293 cells – cell-based, plate reader, cherry-picked samples, cytotoxicity control, dose response (AID 743446). In kind it is functional.
For test [15], the target named is T3, Apoptotic protease-activating factor 1 (Homo sapiens, UniProt O14727).
T3 sequence (O14727 whole entry): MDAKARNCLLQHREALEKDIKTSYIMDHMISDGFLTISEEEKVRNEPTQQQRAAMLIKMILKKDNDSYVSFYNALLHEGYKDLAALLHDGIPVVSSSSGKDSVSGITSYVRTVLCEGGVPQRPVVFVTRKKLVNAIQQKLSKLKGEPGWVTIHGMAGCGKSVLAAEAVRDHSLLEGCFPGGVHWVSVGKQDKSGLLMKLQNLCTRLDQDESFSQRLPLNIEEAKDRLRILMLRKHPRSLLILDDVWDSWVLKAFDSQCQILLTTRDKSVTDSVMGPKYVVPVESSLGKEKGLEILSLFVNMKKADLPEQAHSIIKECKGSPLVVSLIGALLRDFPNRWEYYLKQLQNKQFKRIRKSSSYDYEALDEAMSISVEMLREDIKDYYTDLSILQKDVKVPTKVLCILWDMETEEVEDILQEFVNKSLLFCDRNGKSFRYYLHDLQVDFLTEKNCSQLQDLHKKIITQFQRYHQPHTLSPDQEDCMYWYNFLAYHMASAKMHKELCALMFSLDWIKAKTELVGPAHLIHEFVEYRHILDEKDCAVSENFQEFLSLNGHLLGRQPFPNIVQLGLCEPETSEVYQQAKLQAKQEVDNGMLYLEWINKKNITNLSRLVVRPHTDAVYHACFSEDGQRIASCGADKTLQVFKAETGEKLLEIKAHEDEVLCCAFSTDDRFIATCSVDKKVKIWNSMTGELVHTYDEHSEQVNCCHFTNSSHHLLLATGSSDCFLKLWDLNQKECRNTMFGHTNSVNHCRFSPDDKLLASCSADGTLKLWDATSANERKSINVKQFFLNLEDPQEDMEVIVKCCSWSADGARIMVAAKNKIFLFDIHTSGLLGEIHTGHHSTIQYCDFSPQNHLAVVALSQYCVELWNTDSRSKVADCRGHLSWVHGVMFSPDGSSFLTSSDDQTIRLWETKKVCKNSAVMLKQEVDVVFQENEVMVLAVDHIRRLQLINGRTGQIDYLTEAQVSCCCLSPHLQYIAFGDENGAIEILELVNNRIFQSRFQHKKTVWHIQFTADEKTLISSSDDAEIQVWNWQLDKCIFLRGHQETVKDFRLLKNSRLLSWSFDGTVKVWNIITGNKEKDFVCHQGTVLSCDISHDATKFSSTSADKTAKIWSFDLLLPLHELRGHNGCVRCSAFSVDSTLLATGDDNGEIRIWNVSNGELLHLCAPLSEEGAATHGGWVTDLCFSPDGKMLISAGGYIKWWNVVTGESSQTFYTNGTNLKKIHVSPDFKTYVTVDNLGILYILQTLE
In kind it is functional.

Test [16] is described as follows: blockers of bursicon-stimulated LGR2 cAMP reporter – cell-based, HEK293, CRE-luciferase reporter, cherry pick, set 2, dose response (AID 743343).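 Note: transfected cells were stimulated with diluted bursicon conditioned medium after compound addition.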 In kind it is functional.
A short description of test [17]: A549 cell cytotoxicity, dose response, cytotoxicity control, plate reader, cherry-pick, antagonist series (AID 743412). In kind it is functional, cell-based.
Test [18] can be described thus: toxicity toward HepG2 liver cells – cell-based, plate reader, cherry-pick, antagonist series, cytotoxicity control, dose response (AID 743416). In kind it is functional.
The target of test [19] is T4, Ubiquitin-conjugating enzyme E2 N (Homo sapiens, UniProt P61088).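 Note: Dose-response confirmation in a TR-FRET assay detecting UBC13-driven polyubiquitin chain formation, inhibition measured.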
T4 sequence (P61088 whole entry): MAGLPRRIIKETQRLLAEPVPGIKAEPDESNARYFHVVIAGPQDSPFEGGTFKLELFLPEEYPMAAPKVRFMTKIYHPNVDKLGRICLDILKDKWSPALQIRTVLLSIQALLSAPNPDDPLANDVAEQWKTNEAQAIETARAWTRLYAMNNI
In kind it is functional.

Active and inactive are the calls of the source.

Regarding `COc1ccc(Cl)cc1NC(=O)CN(C1CCCCC1)S(C)(=O)=O`, the half-maximal activity concentration (AC50) in test [1] was 4.33 µM (active); in test [2], 3.13 µM (active); in test [3], 2.69 µM (active); in [4], 5.49 µM (active).
For `CN(Cc1cccs1)c1ncnc2sccc12`, the half-maximal activity concentration (AC50) was 56.6 µM (active) in test [1], 16.9 µM (active) in [3] and 1.3 µM (active) in [4]. Also, the IC50 in [5] is 4.57 µM (active).
As for `COC(=O)CNC(c1ccccc1Cl)c1cc(Br)ccc1NC(=O)CCN1CCOCC1` (stereo unspecified), in [6], the half-maximal cytotoxic concentration (CC50) is > 40 µM (active). In addition, at Protein skinhead-1, the IC50 is > 100 µM (inactive).
For the molecule `CCOc1ccc(-[n+]2c(-c3ccccc3)cn3c2CCC3)cc1`, the AC50 in test [7] is 0.392 µM (active); in test [9] it was 49 µM (active); in the test on INS1, 1.43 µM (active); in [10], 526 nM (active). Moreover, the figures for the EC50 in [8] and in [11] were 24.2 µM (active) and 351 nM (active), respectively.
Consider `O=C(/C=C/c1ccccc1)c1ccc2ccccc2c1`, for which, in the test on Vero, the CC50 is > 25 µM (active).
For `CCOc1ccc(/C=C/C(O)=C2/C(=O)N(C)C3(C)CC2c2ccccc2O3)cc1OC` (stereo unspecified), the CC50 was 11.6 µM (active) in the test with Vero and 2.92 µM (active) in test [12]. In test [13], the AC50 is 2.44 µM (active).
For `CC(C)C[C@H]1COCn2nncc2CC[C@@H](Cc2ccccc2)C(=O)N1`, the AC50 in test [2] was 7.3 µM (active); in test [3], 12.9 µM (active); in [4] it was 7.51 µM (active).
In the case of `Cc1ccc(S(=O)(=O)N(C)C[C@@H]2Oc3ccc(NC(=O)C4CCCCC4)cc3CC(=O)N([C@@H](C)CO)C[C@@H]2C)cc1`, the values for the AC50 in [2], in [3] and in test [4] were 3.75 µM (active), 12.2 µM (active) and 2 µM (active), respectively.
Turning to `CCOc1ccccc1CNc1ncnc2ccc(-c3c(C)noc3C)cc12`, the AC50 in [1] is > 70 µM (inactive); in test [3] it was 44.5 µM (active); in [13], 21.6 µM (active).
In the case of `c1cc2c(cc1C1CCCCC1)c1c3n2CCN=C3CCC1`, the 50% cytotoxic concentration (CC50) in the test on Vero is > 25 µM (active).
As to `CC(C)CC(=O)NC(=S)Nc1ccc(N2CCN(C(=O)c3cccs3)CC2)cc1`, the AC50 was > 70 µM (inactive) in [7], 41.2 µM (active) in test [9] and 2540 nM (active) in [10]. Moreover, the CC50 in [6] was 18.2 µM (active).
Consider `CCOc1cc(/C=C/C(=O)Nc2ccc(C(=O)NCCN(CC)CC)cc2)ccc1OCC(C)C`, for which the concentration at half-maximal activity (AC50) in [14] was 7.83 µM (active); in [16], 35 µM (active); in [17] it was 7.77 µM (active); in [18], 7.47 µM (active). Besides, the figures for the IC50 in [15] and in [19] were 28.5 µM (active) and > 20 µM (inactive), respectively.
Regarding `Cc1nn(-c2ccccc2)c(O)c1/C=N/NC(=O)c1ccoc1C`, the CC50 in test [6] was 4.71 µM (active). In [15], the half-inhibitory concentration (IC50) is 11.2 µM (active).
`CCN1C[C@@H]2[C@@H]3C(=O)N(Cc4ccccc4)C(=O)[C@@H]3[C@](CC)(C1=O)N2C(=O)c1ccc(C(C)(C)C)cc1`: the AC50 is 15.4 µM (active) in test [1], 5.77 µM (active) in test [2], 4.4 µM (active) in [3] and 20.2 µM (active) in test [4].
